In this assay the target is T1, MT13-C (C-terminal MTase domain fragment of METL-13) (Caenorhabditis elegans, UniProt Q17539).
T1 construct: C-terminal methyltransferase fragment, residues 213-656, N-terminal His6 tag (pET28a), expressed in E. coli, Ni-NTA purified
T1 sequence (Q17539 213-656): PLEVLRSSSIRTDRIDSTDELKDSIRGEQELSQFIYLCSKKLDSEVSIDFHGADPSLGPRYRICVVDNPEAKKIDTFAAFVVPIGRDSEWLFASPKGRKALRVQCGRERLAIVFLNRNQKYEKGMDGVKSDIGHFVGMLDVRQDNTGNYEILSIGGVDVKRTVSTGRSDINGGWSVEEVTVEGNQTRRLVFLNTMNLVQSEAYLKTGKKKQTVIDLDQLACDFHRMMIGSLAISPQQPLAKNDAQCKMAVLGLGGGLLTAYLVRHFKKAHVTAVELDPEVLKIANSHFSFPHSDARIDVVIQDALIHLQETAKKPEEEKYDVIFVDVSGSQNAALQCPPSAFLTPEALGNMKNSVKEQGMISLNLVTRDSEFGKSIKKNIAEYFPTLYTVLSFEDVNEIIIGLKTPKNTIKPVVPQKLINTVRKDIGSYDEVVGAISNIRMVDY
As to the kind of experiment: in vitro methyltransferase assay, SDS-PAGE fluorography. Type of assay: biochemical. The conditions noted are these: methyl donor; protein substrate recombinant human eEF1A1 with C-terminal His tag (N-terminal G2 methylation); labelled compound (tritium); pH 7.4, 100 mM NaCl, 10% glycerol, 30 °C, 1 h.

The record followed here is PMC10286969, “Characterization of the biochemical activity and tumor-promoting role of the dual protein methyltransferase METL-13/METTL13 in Caenorhabditis elegans” (PLOS ONE, 2023).

For the compound `C[S+](CC[C@H](N)C(=O)O)C[C@H]1O[C@@H](n2cnc3c(N)ncnc32)[C@H](O)[C@@H]1O` (stereo partly shown) [[^3H]-AdoMet], the “in vitro methyltransferase assay, SDS-PAGE fluorography” value was “C. elegans MT13-N or MT13-C as enzymes, human eEF1A1 as the substrate and [^3H]AdoMet”.
